{"source": "patent US20080200490A1", "about": "“Alpha-(Aryl-or Heteroaryl-Methyl)-Beta-Piperidino Propanamide Compounds as Orl-1-Receptor Antagonists” (PFIZER INC., priority 2005, published 2008)", "note": "Where a name gives a salt, the structure may show the parent alone.", "data": [{"target": "T1, HERG (Homo sapiens, UniProt Q12809)", "T1 construct": "expressed in transfected cells; host or cells: HEK-293", "T1 sequence (Q12809 whole entry)": "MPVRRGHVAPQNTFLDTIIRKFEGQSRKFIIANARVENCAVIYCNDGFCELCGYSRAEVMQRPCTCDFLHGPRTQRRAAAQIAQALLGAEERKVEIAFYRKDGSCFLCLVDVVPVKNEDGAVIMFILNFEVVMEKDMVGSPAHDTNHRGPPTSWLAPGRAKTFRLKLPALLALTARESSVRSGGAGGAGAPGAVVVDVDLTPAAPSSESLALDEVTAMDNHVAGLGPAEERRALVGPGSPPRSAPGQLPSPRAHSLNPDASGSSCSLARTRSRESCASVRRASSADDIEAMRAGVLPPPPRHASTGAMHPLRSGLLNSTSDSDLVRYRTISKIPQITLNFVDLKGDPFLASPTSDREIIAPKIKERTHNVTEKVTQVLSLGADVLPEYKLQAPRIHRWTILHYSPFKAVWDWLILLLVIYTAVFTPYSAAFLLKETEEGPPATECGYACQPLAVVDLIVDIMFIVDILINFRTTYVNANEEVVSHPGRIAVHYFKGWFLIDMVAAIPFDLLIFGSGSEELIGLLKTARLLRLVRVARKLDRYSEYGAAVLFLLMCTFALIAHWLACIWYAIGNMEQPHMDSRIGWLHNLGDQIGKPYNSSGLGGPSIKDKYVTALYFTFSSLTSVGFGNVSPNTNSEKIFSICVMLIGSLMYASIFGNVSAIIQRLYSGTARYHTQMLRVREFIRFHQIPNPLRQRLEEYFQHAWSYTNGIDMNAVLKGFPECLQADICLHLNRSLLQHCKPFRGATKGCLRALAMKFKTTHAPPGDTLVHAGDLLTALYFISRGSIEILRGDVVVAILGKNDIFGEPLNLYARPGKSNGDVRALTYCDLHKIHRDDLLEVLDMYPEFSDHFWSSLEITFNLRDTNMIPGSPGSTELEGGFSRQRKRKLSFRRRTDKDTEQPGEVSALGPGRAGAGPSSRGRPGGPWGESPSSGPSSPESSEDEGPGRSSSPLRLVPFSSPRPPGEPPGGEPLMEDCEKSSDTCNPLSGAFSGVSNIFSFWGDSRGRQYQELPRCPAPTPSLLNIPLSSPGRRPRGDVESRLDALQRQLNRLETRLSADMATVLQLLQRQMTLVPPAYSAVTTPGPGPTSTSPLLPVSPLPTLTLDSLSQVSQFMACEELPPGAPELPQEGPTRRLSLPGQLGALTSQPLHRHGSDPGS", "assay": "not given", "type": "binding", "conditions": "not given", "experimental": "Cell paste of HEK-293 cells expressing the HERG product was suspended in 10-fold volume of 50 mM Tris buffer adjusted at pH 7.5 at 25° C. with 2 M HCl containing 1 mM MgCl2, 10 mM KCl. The cells were homogenized using a Polytron homogenizer (at the maximum power for 20 seconds) and centrifuged at 48,000 g for 20 minutes at 4° C. The pellet was resuspended, homogenized and centrifuged once more in the same manner. The resultant supernatant was discarded and the final pellet was resuspended (10-fold volume of 50 mM Tris buffer) and homogenized at the maximum power for 20 seconds. The membrane homogenate was aliquoted and stored at −80° C. until use. An aliquot was used for protein concentration determination using a Protein Assay Rapid Kit and ARVO SX plate reader (Wallac). […] Saturation was determined by incubating 20 μl of [^3H]-dofetilide and 160 μl of membrane homogenates (20-30 μg protein per well) for 60 min at room temperature in the absence or presence of 10 μM dofetilide at final concentrations (20 μl) for total or nonspecific binding, respectively. […] Receptor-bound radioactivity was quantified by liquid scintillation counting using Packard LS counter.\nFor the competition assay, compounds were diluted in 96 well polypropylene plates as 4-point dilutions in semi-log format. […] Receptor-bound radioactivity was quantified by counting Wallac MicroBeta plate counter. […]", "values": [{"compound": "CN1C(=O)C(CN2CCC3(CCc4ccccc43)CC2)Cc2ccccc21", "note": "(stereo not drawn) [Compound (I)]", "activity in the dofetilide binding assay": "potent activity"}]}, {"target": "T2, human ORL1 receptor (Homo sapiens, UniProt P41146)", "T2 construct": "purchased PerkinElmer; host or cells: HEK-293 cells transfected with human ORL1 receptor (membranes)", "T2 sequence (P41146 whole entry)": "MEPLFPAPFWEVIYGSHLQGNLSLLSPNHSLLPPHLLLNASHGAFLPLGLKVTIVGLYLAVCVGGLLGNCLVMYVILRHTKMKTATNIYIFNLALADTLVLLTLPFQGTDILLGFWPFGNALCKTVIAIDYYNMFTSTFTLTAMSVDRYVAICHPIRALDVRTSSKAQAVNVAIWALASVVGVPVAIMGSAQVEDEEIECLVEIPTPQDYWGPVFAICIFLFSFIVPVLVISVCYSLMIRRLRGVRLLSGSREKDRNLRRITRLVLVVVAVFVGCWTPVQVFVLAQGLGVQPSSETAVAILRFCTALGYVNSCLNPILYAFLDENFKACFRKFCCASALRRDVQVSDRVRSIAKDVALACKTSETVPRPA", "assay": "ORL1-Receptor Binding Assay", "conditions": "Ki, [3H]nociceptin, human ORL1 receptor transfected HEK-293 cell membranes", "experimental": "(§1) The human ORL1 receptor transfected HEK-293 cell membranes (PerkinElmer) were incubated for 45 min at room temperature with 0.4 nM [^3H]nociceptin, 1.0 mg of wheat germ agglutinin(WGA)-coated SPA beads and various concentrations of test compounds in a final volume of 200 μL of 50 mM HEPES buffer pH 7.4 containing 10 mM MgCl2 and 1 mM EDTA. Non-specific binding (NSB) was determined by the addition of 1 μM unlabeled nociceptin. After the reaction, the assay plate was centrifuged at 1,000 rpm for 1 min and then the radioactivity was measured by WALLAC 1450 MicroBeta Trilux.\n(§2) The compounds of the examples were tested in the ORL1 Receptor Binding assay.", "units": {"Ki": "nM"}, "values": [{"compound": "CN(C)C(=O)C(Cc1cscn1)CN1C2CCC1CC1(C2)OCc2ccccc21", "note": "(stereo not drawn) [Example 1, N,N-DIMETHYL-3-(3′H,8H-SPIRO[8-AZABICYCLO[3.2.1]OCTANE-3,1′-[2]BENZOFURAN]-8-YL)-2-(1,3-THIAZOL-4-YLMETHYL)P[…], CITRATE]", "Ki": 1.8}]}, {"target": "T2, human ORL1 receptor", "assay": "ORL1-Receptor Binding Assay", "conditions": "[3H]nociceptin, human ORL1 receptor transfected HEK-293 cell membranes; read-out: Ki", "experimental": "as §1, §2", "units": {"Ki": "nM"}, "values": [{"compound": "CN(C)C(=O)C(CN1C2CCC1CC1(C2)OCc2ccc(F)cc21)Cn1cccn1", "note": "(single isomer, unassigned) [Example 8, 3-(6′-FLUORO-3′H,8H-SPIRO[8-AZABICYCLO[3.2.1]OCTANE-3,1′-[2]BENZOFURAN]-8-YL)-N,N-DIMETHYL-2-(1H-PYRAZOL-1-YLMETHYL)P[…], CITRATE]", "Ki": 2.6}, {"compound": "CN(C)C(=O)C(CN1C2CCC1CC1(C2)OCc2ccccc21)Cn1cccn1", "note": "(single isomer, unassigned; (+)) [Example 3, (+)-N,N-DIMETHYL-3-(1H-PYRAZOL-1-YL)-2-(3′H,8H-SPIRO[8-AZABICYCLO[3.2.1]OCTANE-3,1′-[2]BENZOFURAN]-8-YLMETHYL)P[…], CITRATE]", "Ki": 2}, {"compound": "CN(C)C(=O)C(CN1C2CCC1CC1(C2)OCCc2cc(F)ccc21)Cn1cccn1", "note": "(single isomer, unassigned; (+)) [Example 12, (+)-3-(6′-FLUORO-3′,4′-DIHYDRO-8H-SPIRO[8-AZABICYCLO[3.2.1]OCTANE-3,1′-ISOCHROMEN]-8-YL)-N,N-DIMETHYL-2-(1H-PYRAZOL-1-YLMETHYL)P[…], CITRATE]", "Ki": 140}, {"compound": "CN(C)C(=O)C(CN1C2CCC1CC1(C2)OCc2ccc(F)cc21)Cn1cccn1", "note": "(single isomer, unassigned; (-)) [Example 7, (−)-3-(6′-FLUORO-3′H,8H-SPIRO[8-AZABICYCLOr3.2.1]OCTANE-3,1′-[2]BENZOFURAN]-8-YL)-N,N-DIMETHYL-2-(1H-PYRAZOL-1-YLMETHYL)PROPANAMIDE]", "Ki": 3.6}, {"compound": "CN(C)C(=O)C(CN1C2CCC1CC1(C2)OCCc2cc(F)ccc21)Cn1cccn1", "note": "(single isomer, unassigned; (-)) [Example 13, (−)-3-(6′-FLUORO-3′,4′-DIHYDRO-8H-SPIRO[8-AZABICYCLO[3.2.1]OCTANE-3,1′-ISOCHROMEN]-8-YL)-N,N-DIMETHYL-2-(1H-PYRAZOL-1-YLMETHYL)PROPANAMIDE]", "Ki": 1}, {"compound": "CN(C)C(=O)C(CN1C2CCC1CC1(C2)OCc2ccccc21)Cn1cccn1", "note": "(stereo not drawn) [Example 2, N,N-DIMETHYL-3-(1H-PYRAZOL-1-YL)-2-(3′H,8H-SPIRO[8-AZABICYCLO[3.2.1]OCTANE-3,1′-[2]BENZOFURAN]-8-YLMETHYL)P[…], CITRATE]", "Ki": 2.4}, {"compound": "CN(C)C(=O)C(CN1C2CCC1CC1(C2)OCc2ccc(F)cc21)Cn1cccn1", "note": "(stereo not drawn) [Example 5, 3-(6′-FLUORO-3′H,8H-SPIRO[8-AZABICYCLO[3.2.1]OCTANE-3,1′-[2]BENZOFURAN]-8-YL)-N,N-DIMETHYL-2-(1H-PYRAZOL-1-YLMETHYL)P[…], CITRATE]", "Ki": 3.6}, {"compound": "CN(C)C(=O)C(Cc1cscn1)CN1C2CCC1CC1(C2)OCc2ccc(F)cc21", "note": "(stereo not drawn) [Example 9, 3-(6′-FLUORO-3′H,8H-SPIRO[8-AZABICYCLO[3.2.1]OCTANE-3,1′-[2]BENZOFURAN]-8-YL)-N,N-DIMETHYL-2-(1,3-THIAZOL-4-YLMETHYL) P[…]]", "Ki": 3.8}, {"compound": "CN(C)C(=O)C(CN1C2CCC1CC1(C2)OCCc2ccccc21)Cn1cccn1", "note": "(stereo not drawn) [Example 10, 3-(3′,4′-DIHYDRO-8H-SPIRO[8-AZABICYCLO[3.2.1]OCTANE-3,1′-ISOCHROMEN]-8-YL)-N,N-DIMETHYL-2-(1H-PYRAZOL-1-YLMETHYL)P[…], CITRATE]", "Ki": 7.2}, {"compound": "CN(C)C(=O)C(CN1C2CCC1CC1(C2)OCCc2cc(F)ccc21)Cn1cccn1", "note": "(stereo not drawn) [Example 11, 3-(6′-FLUORO-3′,4′-DIHYDRO-8H-SPIRO[8-AZABICYCLO[3.2.1]OCTANE-3,1′-ISOCHROMEN]-8-YL)—N,N-DIMETHYL-2-(1H-PYRAZOL-1-YLMETHYL)P[…], CITRATE]", "Ki": 1.3}]}]}
